Consider four molecules from patent US20060148895A1, “New composition use and method” (priority 2002, published 2006).

For data set [1] the following is noted: cited from earlier work.
For data set [2] the following is noted: 5 day covered contact in 50 human volunteers, cited from earlier work.
Data set [3] can be described thus: Washing-out properties: residuals of Pres. (18) components after rinsing the housing. Particulars: to a 50 kg person. The procedure:
In a safety evaluation it assumed that the entire volume of a housing is filled with the aqueous antimicrobial preservation composition as the worst case. […] (18). The housing was inserted in its device for extra-corporeal circulation treatment and rinsed with 900 ml of a Ringer-Acetate solution (Pharmacia, Inc) before clinical use. The residual concentration of the components of Pres. (18) after the rinsing procedure was then analyzed. The maximum concentrations found were below the detection limit: […]

The conditions of data set [4]: cited from earlier work. The source holds these as a separate data set.
The conditions of data set [5]: cited from earlier work. This is another data set of the same source.
The conditions of data set [6]: cited from earlier work. This is another data set of the same source.
For data set [7] the following is noted: after ingesting 2000 mg/day for 30 days; cited from earlier work.
The conditions of data set [8]: healthy subjects; cited from earlier work.
For data set [9] the following is noted: neat ethyl paraben; cited from earlier work.
The conditions of data set [10]: cited from earlier work. The source holds these as a separate data set.

Read-outs that look alike come from different tables or passages of the source.

With `CCCOC(=O)c1ccc(O)cc1` [Propyl paraben], the “Repeated oral dose (Rat) - 96 weeks: dose that gave no visible signs of toxicity or tissue changes in the major organs” value in data set [1] is 900-1200 mg/kg/day gave no. Also, the “Skin irritation (human)” value in data set [2] (12% solution in Propylene glycol) is on record as “glycol was non-irritant. (5”. Besides, the “Maximal intravenous dose from residuals” value in data set [3] is given as less than 0.042 mg/kg. Further, the “Intraperitoneal LD50 (Mouse)” value in [4] is 640 mg/kg. In addition, the “Eye irritation (human)” value in [5] (solution containing 0.01% propyl paraben, contact time of 15 minutes in 60 patients) is “propyl paraben produced no”. Besides, the “Acute oral LD50 (Mouse)” value in data set [6] is given as greater than 8000 mg/kg.
Regarding `COC(=O)c1ccc(O)cc1` [Methyl paraben], in [1], the “Repeated oral dose (Rat) - 96 weeks: dose that gave no visible signs of toxicity or tissue changes in the major organs” value is 900-1200 mg/kg/day gave no. Also, the “Skin irritation (human)” value in [2] (5% solution in Propylene glycol) was “glycol was non-irritant. (5”. In addition, in [7], the “Repeated oral dose (human)” value was “No obvious toxic effects”. Moreover, the “Maximal intravenous dose from residuals” value in data set [3] is on record as 0.042 mg/kg. In addition, the “Skin sensitisation (human)” value in data set [8] was “No evidence of skin”. Moreover, the “Intraperitoneal LD50 (Mouse)” value in data set [4] is on record as 960 mg/kg. The “Eye irritation (human): time within which irritation and burning sensation disappeared” value in [5] (solutions containing 0.1-0.3% methyl paraben) is “disappeared within 1 minute”. The “Acute oral LD50 (Mouse)” value in data set [6] is recorded as greater than 8000 mg/kg.
As for `CC(O)CO` (stereo not drawn) [Propylene glycol], in data set [3], the “Maximal intravenous dose from residuals” value is reported as less than 0.022 mg/kg.
Take `CCOC(=O)c1ccc(O)cc1` [Ethyl paraben]: the “Eye irritation (rabbit)” value in [9] is “slight irritation”. The “Repeated oral dose (Rat) - 25 weeks: signs of toxicity” value in [1] (diet containing 2% ethyl paraben, 25 weeks) is given as “paraben gave no visible signs”. Also, the “Skin irritation (human)” value in data set [2] (7% solution in propylene glycol) was “glycol was non-irritant. (5”. Moreover, in data set [10], the “Acute oral LD50 (Rat)” value was greater than 4300 mg/kg. In data set [3], the “Maximal intravenous dose from residuals” value is reported as less than 0.042 mg/kg. Besides, the “Skin sensitisation (human)” value in [8] is reported as “No evidence of skin”.
